These results are taken from publication PMC8815882, “Screening the pandemic response box identified benzimidazole carbamates, Olorofim and ravuconazole as promising drug candidates for the treatment of eumycetoma” (PLoS Neglected Tropical Diseases, 2022).

In test [1] the test system is M. mycetomatis genome strain MM55. As to the kind of experiment: CLSI M38-A2 based in vitro susceptibility screening (XTT or resazurin), growth at fixed concentration. It counts as cell-based, Madurella mycetomatis. To be noted: for activity at 25 µM / activity at 100 µM: Madurella mycetomatis. For orientation: Tetrazolium assays rely on reduction of a dye to a coloured formazan, in cell work by metabolically active cells.

Test [2] concerns M. mycetomatis. In words: Drug static or cidal. The test is classed as cell-based, Madurella mycetomatis. From the text: Supplement pntd.0010159.s001.xlsx, sheet "Pandemic Box Master sheet" | column: Drug static or cidal
Test [3] concerns M. mycetomatis MM55. In words: IC50 determination, 2-fold dilution series. The test is classed as cell-based, Madurella mycetomatis. To be noted: Madurella mycetomatis.
The subject of test [4] is ten different M. mycetomatis isolates. In words: MIC / MIC50 determination (XTT) in ten M. mycetomatis isolates. It counts as cell-based, Madurella mycetomatis. The settings on record: Madurella mycetomatis.
The subject of test [5] is M. pseudomycetomatis strain Mex2A. As to the kind of experiment: CLSI M38-A2 based in vitro susceptibility screening at 25 μM. The test is classed as cell-based, Madurella pseudomycetomatis. The settings on record: selected if >75% (resazurin) or >80% (XTT) fungal growth inhibited.
Test [6] has as its system M. tropicana strain CBS206.47. The description is as above. The test is classed as cell-based, Madurella tropicana. The settings on record: selected if >75% (resazurin) or >80% (XTT) fungal growth inhibited. (In general: Resazurin is reduced to fluorescent resorufin, in cell work by metabolically active cells.)
Setting [7] is: mean of replicates, read-out: Percentage survival at 25um, 25 uM mean.
The mark [8] stands for this setting: replicate A, read-out: Percentage survival at 25um, 25 um A.
[9] abbreviates: replicate B, read-out: Percentage survival at 25um, 25 uM B.
Where [10] appears, read: replicate C, read-out: Percentage survival at 25um, 25 uM C.
Where [11] appears, read: mean of replicates, read-out: Percentage survival at 100um, 100 uM mean.
Setting [12] is: replicate 1, read-out: Percentage survival at 100um, 100 uM A.
[13] abbreviates: replicate 2, read-out: Percentage survival at 100um, 100 uM A.
[14] abbreviates: replicate 3, read-out: Percentage survival at 100um, 100 uM A.
Setting [15] is: MM55, mean of replicates, read-out: IC50 mean.
Where [16] appears, read: MM55, mean of replicates, read-out: IC90 mean.
Setting [17] is: MM55, replicate 1, read-out: IC50 1.
[18] abbreviates: MM55, replicate 1, read-out: IC90 1.
[19] abbreviates: MM55, replicate 2, read-out: IC50 2.
[20] abbreviates: MM55, replicate 2, read-out: IC90 2.
Where [21] appears, read: MM55, replicate 3, read-out: IC50 3.
[22] abbreviates: MM55, replicate 3, read-out: IC90 3.
Setting [23] is: mean of three replicates, read-out: Percentage survival at 25um, 25 uM mean.
[24] abbreviates: first replicate column, read-out: Percentage survival at 100um, 100 uM A.
The mark [25] stands for this setting: mean of three replicates, read-out: Percentage survival at 100um, 100 uM mean.
Where [26] appears, read: second replicate column, read-out: Percentage survival at 100um, 100 uM A.
Where [27] appears, read: third replicate column, read-out: Percentage survival at 100um, 100 uM A.
Setting [28] is: MM55, replicate 1, read-out: IC50 1 um.
[29] abbreviates: MM55, replicate 1, read-out: IC90 1 um.
[30] abbreviates: MM55, replicate 2, read-out: IC50 2 um.
Setting [31] is: MM55, replicate 2, read-out: IC90 2 um.
Where [32] appears, read: MM55, replicate 3, read-out: IC50 3 um.
Setting [33] is: MM55, replicate 3, read-out: IC90 3 um.

Values after ≈ are worked out from the molar mass of the structure shown. Read-outs that look alike come from different tables or passages of the source. Bounds are passed on as bounds.

For `Cc1ccc(S(=O)(=O)Nc2cccc3cccnc23)cc1` [MMV233495], the activity at 25 µM in test [1] (setting [7]) is 17.1%; in test [1] (setting [8]), 5.12%; in test [1] (setting [9]), -0.547%; in test [1] (setting [10]), 46.8%. The activity at 100 µM is 31.3% in test [1] (setting [11]), -0.389% in test [1] (setting [12]), 38.9% in test [1] (setting [13]) and 55.5% in test [1] (setting [14]). Further, in test [2], the “Drug static or cidal” value is reported as “Static”. The IC50 (as a rule, the concentration that gives 50% inhibition) is above 25 µM in test [3] (setting [15]), 18.5 µM in test [3] (setting [17]), above 25 µM in test [3] (setting [19]) and above 25 µM in test [3] (setting [21]). Moreover, the concentration for an effect of 90% (IC90) in test [3] (setting [16]), in test [3] (setting [18]), in test [3] (setting [20]) and in test [3] (setting [22]) was above 25 µM throughout.
Consider `CCN(CC)CCn1c(=N)n(CC(O)COc2ccc(Cl)cc2Cl)c2ccccc21` (stereo not shown) [MMV000725], for which the activity at 25 µM in test [1] (setting [7]) turned out to be 2.68%; in test [1] (setting [8]), 3.92%; in test [1] (setting [9]), 1.56%; in test [1] (setting [10]) it was 2.57%. Besides, the activity at 100 µM in test [1] (setting [11]) was 4.47%; in test [1] (setting [12]), 4.59%; in test [1] (setting [13]), 3.57%; in test [1] (setting [14]), 5.25%. The “Drug static or cidal” value in test [2] is listed as “Cidal”. Moreover, the concentration for half-maximal inhibition (IC50) turned out to be 8.21 µM in test [3] (MM55, Table 2, M. mycetomatis MM55, read-out: IC50); 8.22 µM in test [3] (setting [15]); 2.8 µM in test [3] (setting [17]); 9.6 µM in test [3] (setting [19]); 12.2 µM in test [3] (setting [21]). For the same compound, the 90% effect concentration (IC90) (as a rule, the concentration needed for an effect of 90%) stood at 18.7 µM in test [3] (setting [16]), 13.2 µM in test [3] (setting [18]), 21.1 µM in test [3] (setting [20]) and 21.8 µM in test [3] (setting [22]). Further, the MIC50 (as a rule, the lowest concentration that inhibits either 50% of growth or 50% of the strains tested, depending on the study) is 16 µM (≈ 7.22 µg/mL) in test [4] (median MIC over ten M. mycetomatis isolates, no asterisk, read-out: MIC50) and below 16 µM in test [4] (ten isolates, read-out: MIC50 mean). In addition, the MIC (in general, the lowest concentration found to suppress growth) in test [4] (isolate CBS247.48, read-out: MIC CBS247.48) was above 16 µM; in test [4] (isolate MM14, read-out: MIC MM14), above 16 µM; in test [4] (isolate MM45, read-out: MIC MM45), above 16 µM; in test [4] (isolate MM55, read-out: MIC MM55) it was above 16 µM; in test [4] (isolate P1, read-out: MIC P1) it was above 16 µM; in test [4] (isolate ParijsAl1, read-out: MIC ParijsAl1), above 16 µM. For the same compound, the MIC in test [4] (isolate Peru72012, read-out: MIC Peru72012) was above 16 µM; in test [4] (isolate So1, read-out: MIC So1), 16 µM (≈ 7.22 µg/mL); in test [4] (isolate i1, read-out: MIC i1), 16 µM (≈ 7.22 µg/mL); in test [4] (isolate i11, read-out: MIC i11), above 16 µM.
For the compound `Clc1ccc(Cn2c(CN3CCCC3)nc3ccccc32)cc1` [MMV002015], the activity at 25 µM in test [1] (setting [23]) is 6.67%; in test [1] (setting [8]) it was 9.47%; in test [1] (setting [9]), -1.23%; in test [1] (setting [10]) it was 11.8%. Further, the activity at 100 µM in test [1] (setting [24]) turned out to be 3.95%; in test [1] (setting [25]), 4.96%; in test [1] (setting [26]), 6.49%; in test [1] (setting [27]), 4.45%. Moreover, in test [2], the “Drug static or cidal” value is “Cidal”. Further, the IC50 in test [3] (setting [15]), in test [3] (setting [28]), in test [3] (setting [30]) and in test [3] (setting [32]) was above 25 µM each time. Moreover, the 90% effect concentration (IC90) in test [3] (setting [16]), in test [3] (setting [29]), in test [3] (setting [31]) and in test [3] (setting [33]) was above 25 µM throughout.
`OC(Cn1cncn1)(Cn1cncn1)c1ccc(F)cc1F` [fluconazole]: the “Inhibits growth of Madurella mycetomatis at 25 μM” value in test [1] (25 μM, selected if >75% (resazurin) or >80% (XTT) fungal growth inhibited) was “not M. mycetomatis and M. tropicana”. In addition, in test [5], the “Inhibits growth of Madurella pseudomycetomatis at 25 μM” value is “inhibit the growth”. For the same compound, the “Inhibits growth of Madurella tropicana at 25 μM” value in test [6] was “not M. mycetomatis and M. tropicana”.
Consider `O=C(Nc1nnc(-c2ccc(Cl)cc2)o1)c1ccc(F)cc1` [MMV1782140], for which the activity at 25 µM in test [1] (setting [7]) was 8.95%; in test [1] (setting [8]), 5.38%; in test [1] (setting [9]) it was 8.31%; in test [1] (setting [10]), 13.2%. The activity at 100 µM in test [1] (setting [11]) is 2.78%; in test [1] (setting [12]), -0.102%; in test [1] (setting [13]), 3.75%; in test [1] (setting [14]), 4.7%. The “Drug static or cidal” value in test [2] is reported as “Cidal”. Further, the IC50 in test [3] (setting [15]) stood at 13.4 µM; in test [3] (setting [17]), 15.2 µM; in test [3] (setting [19]) it was 11.5 µM; in test [3] (setting [21]), 13.5 µM. Moreover, the IC90 is 23.2 µM in test [3] (setting [18]), 21.7 µM in test [3] (setting [20]) and above 25 µM in test [3] (setting [22]).
In the case of `Cc1ccc(NC(=O)c2cc(Cl)ccc2O)cc1` [MMV1578897], the activity at 25 µM is 4.86% in test [1] (setting [7]), 3.43% in test [1] (setting [8]), 0.378% in test [1] (setting [9]) and 10.8% in test [1] (setting [10]). In addition, the activity at 100 µM in test [1] (setting [11]) came to 2.02%; in test [1] (setting [12]), 2.19%; in test [1] (setting [13]), 0.189%; in test [1] (setting [14]), 3.69%. Further, in test [2], the “Drug static or cidal” value is listed as “Static”. Also, the 50% inhibitory concentration (IC50) in test [3] (setting [15]), in test [3] (setting [17]), in test [3] (setting [19]) and in test [3] (setting [21]) was above 25 µM in each case. In addition, the concentration for an effect of 90% (IC90) in test [3] (setting [16]), in test [3] (setting [18]), in test [3] (setting [20]) and in test [3] (setting [22]) was above 25 µM each time.
As for `Oc1cccc(C(Nc2nccs2)c2ccc3cccnc3c2O)c1` (stereo not shown) [MMV642550], the activity at 25 µM in test [1] (setting [23]) is 1.21%; in test [1] (setting [8]), -5.33%; in test [1] (setting [9]) it was 6.92%; in test [1] (setting [10]) it was 2.03%. The activity at 100 µM in test [1] (setting [24]) came to 4.63%; in test [1] (setting [25]) it was 8.03%; in test [1] (setting [26]) it was 8.66%; in test [1] (setting [27]), 10.8%. Besides, the “Drug static or cidal” value in test [2] is on record as “Cidal”. For the same compound, the half-maximal inhibitory concentration (IC50) in test [3] (setting [15]), in test [3] (setting [28]), in test [3] (setting [30]) and in test [3] (setting [32]) was above 25 µM throughout. Moreover, the concentration for an effect of 90% (IC90) in test [3] (setting [16]), in test [3] (setting [29]), in test [3] (setting [31]) and in test [3] (setting [33]) was above 25 µM each time.
Take `CN1CCN(Cc2ccc(-c3cnc4[nH]cc(-c5ccc6[nH]ccc6c5)c4c3)cc2)CC1` [MMV1580482]: the activity at 25 µM in test [1] (setting [23]) amounted to 2.87%; in test [1] (setting [8]) it was 0.0624%; in test [1] (setting [9]), 1.21%; in test [1] (setting [10]), 7.33%. Besides, the activity at 100 µM in test [1] (setting [24]) is 27.2%; in test [1] (setting [25]), 16.3%; in test [1] (setting [26]), 11.5%; in test [1] (setting [27]), 10.2%. In addition, the “Drug static or cidal” value in test [2] is “Static”. Moreover, the half-maximal inhibitory concentration (IC50) in test [3] (setting [15]) turned out to be 15.8 µM; in test [3] (setting [28]), 17.4 µM; in test [3] (setting [30]), 15.3 µM; in test [3] (setting [32]), 14.6 µM. Also, the concentration for an effect of 90% (IC90) in test [3] (setting [29]) was above 25 µM; in test [3] (setting [31]), 22.8 µM; in test [3] (setting [33]), 22.2 µM.
